Results on 16 compounds are retold here after PubChem BioAssay (NCI).

What all share (assay): growth of human tumour cells (NCI), 48 h
The test system of experiment [1] is DLD-1 colon.
The test system of experiment [2] is DMS 273 small cell lung.
In experiment [3] the test system is HCT-15 colon.
The subject of experiment [4] is HL-60(TB) leukemia.
In experiment [5] the test system is KM20L2 colon.
The subject of experiment [6] is M19-MEL melanoma.
The subject of experiment [7] is MOLT-4 leukemia.
Experiment [8] concerns UACC-62 melanoma.
For experiment [9], the system named is UO-31 renal.
Experiment [10] deals with MCF7 breast.
Experiment [11] deals with NCI/ADR-RES ovarian.

“And” between values parts separate entries of the source, which are not always exact repeats. Equal values may be shown once.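 Compound exposure: 48 hours, 5 concentrations, 96-well plates. GI50 marks 50% less growth. TGI denotes the concentration required for complete inhibition of growth.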 Where a SMILES comes first, the peptide text is derived from it. Bridges are numbered along the chain shown (N, C = ends).

Turning to `CC(C)(C1=NC(C(C)(C)C)CO1)C1=N[C@@H](C(C)(C)C)CO1` (stereo partly drawn), the TGI in experiment [1], in [2], in experiment [3], in experiment [4], in [5] and in [6] was above 100 µM each time. For the same compound, the TGI in [7], in experiment [8] and in experiment [9] was above 100 µM throughout.
`Cc1c2cc[n+](C)cc2c(C)c2c1[nH]c1ccc(OCC(F)(F)F)cc12`: the TGI is above 100 µM in [1]; > 31.7 µM and 30.9 µM in experiment [2]; above 100 µM in experiment [3]; above 70.4 µM in experiment [4]; above 100 µM in experiment [5]; above 24.5 µM in experiment [6]. In addition, the TGI in [7] was 11.1 µM and > 55.9 µM; in [8], above 100 µM; in experiment [9], above 100 µM. In addition, the GI50 in experiment [3] was 44.6 µM and > 100 µM; in experiment [4], 5.13 µM and 16.4 µM; in experiment [9] it was 36.6 µM and > 100 µM.
Take `c1ccc(C2N=C(c3ccccn3)C(c3ccccn3)=NC2c2ccccc2)cc1` (stereo not drawn): the TGI in [1], in experiment [2], in experiment [3], in experiment [4], in [5] and in experiment [6] was above 100 µM in each case. For the same compound, the TGI in [7], in experiment [8] and in experiment [9] was above 100 µM each time.
As to `COC(=O)c1c(CC(=O)OC(C)C)cc2n(c1=O)Cc1c-2nc2ccccc2c1OC`, the TGI in experiment [1], in [2], in experiment [3], in [4], in experiment [5] and in [6] was above 100 µM in each case. Further, the TGI in [7], in experiment [8] and in [9] was above 100 µM each time.
On to `Cc1cccc(NC(=S)Nc2cccc(Cl)c2)n1`, for which the TGI in experiment [3], in [4], in [10], in [7], in [11] and in experiment [8] was above 100 µM in each case. Besides, the TGI in [9] was above 100 µM.
For `O=C1CC(c2cccc([N+](=O)[O-])c2)C2(C(=O)NC(=S)NC2=O)C(c2cccc([N+](=O)[O-])c2)C1` (stereo not drawn), the TGI in experiment [3] was above 100 µM; in experiment [4] it was above 100 µM; in [10] it was 50.9 µM; in [7] it was above 100 µM; in experiment [11], above 100 µM; in [8], 60.6 µM. Besides, the TGI in experiment [9] is above 100 µM.
On to `O=c1[nH]c(=S)[nH]c2c1CCCN2`, for which the TGI in experiment [1], in experiment [3], in experiment [4], in experiment [6], in experiment [7] and in experiment [8] was above 100 µM throughout. In [9], this compound came in with a TGI above 100 µM.
Regarding `C=CCCCN(C(=O)c1ccccc1)c1ccc(C(=O)OC)o1`, the TGI in [3], in [4], in experiment [10], in experiment [7], in experiment [11] and in experiment [8] was above 100 µM each time. Moreover, the TGI in experiment [9] is above 100 µM.
For the compound `C[C@H](CCc1nc(C#N)c(N)o1)[C@H]1CC[C@H]2[C@@H]3CCC4C[C@@H](O)CC[C@]4(C)[C@H]3C[C@@H](O)[C@]12C` (stereo partly drawn), the TGI in experiment [3] turned out to be 29.5 µM; in [4] it was 2.38 µM; in experiment [10], 35.7 µM; in experiment [7], 20.2 µM; in experiment [11], 25 µM; in experiment [8] it was 25.3 µM. Moreover, in experiment [9], the TGI is 16.6 µM.
Consider `COC1(C)CCC(OS(C)(=O)=O)CO1` (stereo not drawn), for which the TGI in experiment [3], in [4], in experiment [10], in experiment [7], in experiment [11] and in [8] was above 100 µM throughout. This compound yielded a TGI in experiment [9] above 100 µM.
As to `COc1ccc(-c2nc(-c3cnccn3)n(C/C=C/c3ccccc3)n2)cc1`, the TGI in experiment [3], in experiment [4], in experiment [10], in experiment [7], in [11] and in experiment [8] was above 100 µM in each case. For the same compound, the TGI in experiment [9] is above 100 µM.
Regarding `COC(=O)C1CCC(=O)NCCCCC(NC(=O)C(N)CC(=O)O)C(=O)N1` (stereo not drawn) (H-Asp-Lys-Glu-OMe; lactam 2-3; configuration not given here), the TGI in experiment [3], in [4], in [10], in [7], in [11] and in [8] was above 100 µM each time. In experiment [9], this compound gave a TGI above 100 µM.
As for `CC1(C)Cc2ccccc2C(C)(Cl)C(=O)N1` (stereo not drawn), the TGI in experiment [3], in experiment [4], in experiment [10], in experiment [7], in experiment [11] and in [8] was above 10 µM in each case. In experiment [9], this compound yielded a TGI above 10 µM.
For `C[C@@H]1C[C@@H]2OC(=O)[C@]3(C)[C@H]2[C@@H](OC3(C)O)[C@]2(C)C(=O)C=C[C@@H]12` (stereo partly drawn), the TGI in experiment [3] is 30.2 µM; in [4] it was 11.2 µM; in [10], 32.7 µM; in experiment [7], 39.7 µM; in experiment [11] it was above 100 µM; in experiment [8], 31.6 µM. Besides, the TGI in experiment [9] is above 100 µM.
As to `CC12CC(c3ccccc3O1)C(C(=O)Nc1nccs1)C(=O)N2` (stereo not drawn), the TGI in [3], in experiment [4], in experiment [10], in experiment [7], in experiment [11] and in experiment [8] was above 100 µM throughout. The TGI in [9] was above 100 µM.
Turning to `CC1=NN(c2ccccc2)C(=O)/C1=C\c1c(C)[nH]n(-c2ccccc2)c1=O`, the TGI in experiment [3], in experiment [4], in experiment [10], in [7], in experiment [11] and in experiment [8] was above 100 µM in each case. In experiment [9], this compound came in with a TGI above 100 µM.
